According to patent publication US20180235931A1, “USE OF NEUROKININ-1 ANTAGONISTS AS ANTITUSSIVES” (Menlo Therapeutics Inc., priority 2017, published 2018):

Columns and labels:
[1] = cited from earlier work
[2] = Solubility test of serlopitant in Franz cell receptor solution; type: physicochemical
[3] = In vitro skin permeation, Franz diffusion cell; type: in vitro ADME; conditions: topical formulations B and C on human skin, 37 C, LC-MS/MS
Description: In vitro skin permeation of serlopitant in topical formulations A-D was evaluated using a Franz diffusion cell. FIG. 1 illustrates a Franz diffusion cell. A Franz diffusion cell having a circular permeation area of 4.15 cm^2 and a receptor chamber volume of 19 mL was set up with a thermo-regulated outer water jacket to maintain the temperature at 37° C. The receptor chamber was filled with 19 mL 1×PBS (pH 7.5) containing 10% ethanol and 1% Tween® 80.
Human skin was pre-treated to remove all subcutaneous fat and was cleaned with 70% ethanol before use. The skin was visually inspected to ensure that it was free of any surface irregularity or small holes and was equally divided into four pieces. The skin was then mounted onto the receptor chamber with the stratum corneum side facing up. About 100 mg of topical formulation A, B, C or D was applied to the skin (actual weight: A, 103.8 mg; B, 101.3 mg; C, 103.2 mg; and D, 103.8 mg), which was then covered with parafilm to avoid evaporation. […]
All samples were processed by solid-phase extraction (SPE) before LC-MS/MS analysis. […] Serlopitant concentrations in samples resulting from formulations A-D were determined by comparison to the standard. Serlopitant was not detected in samples resulting from topical formulations A and D, as expected. […] After an initial lag, serlopitant was detected by LC-MS/MS in the receptor chamber at 6 hours.

Row | solubility in receptor solution ([2]; 0.5, 5 and 50 ug/mL in 1xPBS (pH 7.5) containing 10% ethanol and 1% Tween 80, 1 hour at 37 C) | solubility if Tween 80 was not used ([2]; receptor solution without Tween 80) | solubility if ethanol was not used ([2]; receptor solution without ethanol) | time at which serlopitant was detected in the receptor chamber after initial lag [3] | SMILES | hygroscopicity ([1]; all tested relative humidity conditions) | thermodynamic stability ([1]; below 70 C, Form I vs Form II)
1 | – | – | – | – | C[C@@H](O[C@H]1CC[C@@H]2CN(C3=CC(=O)CC3)C[C@H]2[C@@H]1c1ccc(F)cc1)c1cc(C(F)(F)F)cc(C(F)(F)F)c1 [Form I] | non-hygroscopic | thermodynamically more stable
2 | remained soluble | decreased significantly | decreased slightly | 6 h | CC(O[C@H]1CC[C@@H]2CN(C3=CC(=O)CC3)C[C@H]2[C@@H]1c1ccc(F)cc1)c1cc(C(F)(F)F)cc(C(F)(F)F)c1 (stereo partly drawn) [serlopitant] | – | –
